Assay results from US4496576A, “Compositions of p-hydroxybenzoic acid esters and methods of preparation and use” (priority 1983, dated 1985).
≈ marks a conversion by molar mass, not a printed value. Like-named read-outs stand apart in the source and are kept apart here.

Legend:
[1] = tested on: Bacillus subtilis ATCC 6633; test: minimum inhibitory concentration (agar plate growth inhibition); format: cell-based
Description: (§1) The mixture or composition prepared as in Example 1 was tested to determine the minimum inhibitory concentration (MIC) of the composition against various microorganisms (i.e., bacteria, yeast and fungi) according to the following procedure:
(§2) (1) Tryptic Soy Agar (TSA) was prepared according to the manufacturer's directions by suspending 40 g TSA in cold deionized water (1 liter). The suspension was heated to boiling in order to dissolve completely and then autoclaved for 15 minutes at 15 pounds pressure at 121° C.
(§3) (2) After autoclaving, the media was cooled to 45° C. in a water bath.
(§4) (3) At this point, the mixture was aseptically added to the TSA at different levels in order to obtain the desired test concentrations.
(§5) (1) The bacteria and yeast inoculum consisted of 0.1 ml of a 1:100 saline dilution of an overnight TSB broth culture (10-10 CFU/ml). CFU=Colony Forming Units.
(§6) (3) A sterile Dacron swab was used to spread the inoculum evenly over the entire agar surface.
(§7) (1) The bacteria and yeast plates were incubated at 35° C. for 48 hours.

[2] = tested on: Candida albicans ATCC 10231; test: as above; format: cell-based
Description: as §1, §2, §3, §4, §5, §6, §7

[3] = tested on: Enterobacter cloacae ATCC 23355; test: as above; format: cell-based
Description: as §1, §2, §3, §4, §5, §6, §7

[4] = tested on: Escherichia coli ATCC 8739; test: as above; format: cell-based
Description: as §1, §2, §3, §4, §5, §6, §7

[5] = tested on: Klebsiella pneumoniae ATCC 8308; test: as above; format: cell-based
Description: as §1, §2, §3, §4, §5, §6, §7

[6] = tested on: Proteus vulgaris ATCC 13315; test: as above; format: cell-based
Description: as §1, §2, §3, §4, §5, §6, §7

[7] = tested on: Pseudomonas aeruginosa ATCC 13388; test: as above; format: cell-based
Description: as §1, §2, §3, §4, §5, §6, §7

[8] = tested on: Pseudomonas aeruginosa ATCC 14502; test: as above; format: cell-based
Description: as §1, §2, §3, §4, §5, §6, §7

[9] = tested on: Pseudomonas aeruginosa ATCC 15442; test: as above; format: cell-based
Description: as §1, §2, §3, §4, §5, §6, §7

[10] = tested on: Pseudomonas aeruginosa ATCC 9027; test: as above; format: cell-based
Description: as §1, §2, §3, §4, §5, §6, §7

Pseudomonas stutzeri = test: as above; format: cell-based; details: Stutzerimonas stutzeri, 48 h
Description: as §1, §2, §3, §4, §5, §6, §7

Saccharomyces cerevisiae = test: as above; format: cell-based; details: 48 h
Description: as §1, §2, §3, §4, §5, §6, §7

[11] = tested on: Salmonella typhosa ATCC 6539; test: as above; format: cell-based; details: Salmonella enterica, 48 h
Description: as §1, §2, §3, §4, §5, §6, §7

[12] = tested on: Serratia marcescens ATCC 8100; test: as above; format: cell-based
Description: as §1, §2, §3, §4, §5, §6, §7

[13] = tested on: Staphylococcus aureus ATCC 6538; test: as above; format: cell-based
Description: as §1, §2, §3, §4, §5, §6, §7

[14] = tested on: Staphylococcus epidermidis ATCC 1228; test: as above; format: cell-based
Description: as §1, §2, §3, §4, §5, §6, §7

Streptococcus faecalis = test: as above; format: cell-based; details: Enterococcus faecalis, 48 h
Description: as §1, §2, §3, §4, §5, §6, §7

[15] = tested on: Aspergillus niger ATCC 9642; test: as above; format: cell-based
Description: as §1, §2, §3, §4
(§8) (2) The fungus inoculum consisted of 0.1 ml of a spore-saline suspension harvested by gently rubbing the spores from a 1-week old Sabourand dextrose agar slant incubated at 25° C. with sterile saline (10-10 CFU/ml).
as §6
(§9) (2) The fungus plates were incubated at 30° C. for 72-96 hours.

[16] = tested on: Penicillium chrysogenum ATCC 9480; test: as above; format: cell-based
Description: as §1, §2, §3, §4, §8, §6, §9

[17] = tested on: Trichophyton mentagrophytes; test: as above; format: cell-based
Description: as §1, §2, §3, §4, §8, §6, §9

physchem = details: water
[18] = ATCC6633, TSA, 35° C., 48 h, read-out: MIC
[19] = ATCC10231, TSA, 35° C., 48 h, read-out: MIC
[20] = ATCC23355, TSA, 35° C., 48 h, read-out: MIC
[21] = ATCC8739, TSA, 35° C., 48 h, read-out: MIC
[22] = ATCC8308, TSA, 35° C., 48 h, read-out: MIC
[23] = ATCC13315, TSA, 35° C., 48 h, read-out: MIC
[24] = ATCC13388, TSA, 35° C., 48 h, read-out: MIC
[25] = ATCC14502, TSA, 35° C., 48 h, read-out: MIC
[26] = ATCC15442, TSA, 35° C., 48 h, read-out: MIC
[27] = ATCC9027, TSA, 35° C., 48 h, read-out: MIC
[28] = ATCC8100, TSA, 35° C., 48 h, read-out: MIC
[29] = ATCC6538, TSA, 35° C., 48 h, read-out: MIC
[30] = ATCC1228, TSA, 35° C., 48 h, read-out: MIC
[31] = ATCC9642, TSA, 30° C., 72-96 h, read-out: MIC
[32] = ATCC9480, TSA, 30° C., 72-96 h, read-out: MIC
[33] = TSA, 30° C., 72-96 h, read-out: MIC

SMILES	MIC [1, 18] [µg/mL]	MIC [2, 19] [µg/mL]	MIC [3, 20] [µg/mL]	MIC [4, 21] [µg/mL]	MIC [5, 22] [µg/mL]	MIC [6, 23] [µg/mL]	MIC [7, 24] [µg/mL]	MIC [8, 25] [µg/mL]	MIC [9, 26] [µg/mL]	MIC [10, 27] [µg/mL]	MIC (Pseudomonas stutzeri; TSA, 35° C., read-out: MIC) [µg/mL]	MIC (Saccharomyces cerevisiae; TSA, 35° C., read-out: MIC) [µg/mL]	MIC [11] [µg/mL]	MIC [12, 28] [µg/mL]	MIC [13, 29] [µg/mL]	MIC [14, 30] [µg/mL]	MIC (Streptococcus faecalis; TSA, 35° C., read-out: MIC) [µg/mL]	MIC [15, 31] [µg/mL]	MIC [16, 32] [µg/mL]	MIC [17, 33] [µg/mL]	also measured
CC(C)COC(=O)c1ccc(O)cc1 [Isobutyl p-Hydroxybenzoate, isobutyl p-hydroxybenzoate]	250 (≈ 1290 µM)	125 (≈ 644 µM)	1000 (≈ 5150 µM)	> 1000	500 (≈ 2570 µM)	250 (≈ 1290 µM)	> 1000	> 1000	> 1000	> 1000	> 1000	125 (≈ 644 µM)	1000 (≈ 5150 µM)	1000 (≈ 5150 µM)	250 (≈ 1290 µM)	250 (≈ 1290 µM)	500 (≈ 2570 µM)	250 (≈ 1290 µM)	125 (≈ 644 µM)	63 (≈ 324 µM)	solubility (physchem): 200 µg/mL (≈ 1030 µM)
CC(C)OC(=O)c1ccc(O)cc1 [Isopropyl p-Hydroxybenzoate, isopropyl p-hydroxybenzoate]	500 (≈ 2770 µM)	250 (≈ 1390 µM)	1000 (≈ 5550 µM)	1000 (≈ 5550 µM)	500 (≈ 2770 µM)	500 (≈ 2770 µM)	> 2000	> 2000	> 2000	2000 (≈ 11100 µM)	1000 (≈ 5550 µM)	< 125	1000 (≈ 5550 µM)	1000 (≈ 5550 µM)	1000 (≈ 5550 µM)	500 (≈ 2770 µM)	1000 (≈ 5550 µM)	250 (≈ 1390 µM)	< 125	< 125	solubility (physchem): 800 µg/mL (≈ 4440 µM)
CCCCOC(=O)c1ccc(O)cc1 [n-Butyl p-Hydroxybenzoate, n-butyl p-hydroxybenzoate]													500 (≈ 2570 µM)								MIC ([1]; ATCC6633, 48 h): 250 µg/mL (≈ 1290 µM); MIC ([2]; ATCC10231, 48 h): 125 µg/mL (≈ 644 µM); MIC ([3]; ATCC23355, 48 h): 250 µg/mL (≈ 1290 µM); MIC ([4]; ATCC8739, 48 h): 500 µg/mL (≈ 2570 µM); MIC ([5]; ATCC8308, 48 h): 250 µg/mL (≈ 1290 µM); MIC ([6]; ATCC13315, 48 h): 125 µg/mL (≈ 644 µM); MIC ([7]; ATCC13388, 48 h): > 6000 µg/mL; MIC ([8]; ATCC14502, 48 h): > 6000 µg/mL; MIC ([9]; ATCC15442, 48 h): > 6000 µg/mL; MIC ([10]; ATCC9027, 48 h): > 6000 µg/mL; MIC (Pseudomonas stutzeri): 500 µg/mL (≈ 2570 µM); MIC (Saccharomyces cerevisiae): 32 µg/mL (≈ 165 µM); MIC ([12]; ATCC8100, 48 h): 500 µg/mL (≈ 2570 µM); MIC ([13]; ATCC6538, 48 h): 125 µg/mL (≈ 644 µM); MIC ([14]; ATCC1228, 48 h): 250 µg/mL (≈ 1290 µM); MIC (Streptococcus faecalis): 250 µg/mL (≈ 1290 µM); MIC ([15]; ATCC9642): 125 µg/mL (≈ 644 µM); MIC ([16]; ATCC9480): 63 µg/mL (≈ 324 µM); MIC [17]: 32 µg/mL (≈ 165 µM); solubility (water solubility): 150 µg/mL (≈ 772 µM)
